One block for each compound: values may come before it.
Legend:
[1] = system: MCF-7; assay: In vitro combination study, breast cancer cell line MCF-7; assay type: cell-based
[2] = system: MDA-MB-361; assay: In vitro combination study, breast cancer cell line MDA-MB-361; assay type: cell-based
[3] = system: MDA-MB-453; assay: In vitro combination study, breast cancer cell line MDA-MB-453; assay type: cell-based; conditions: 10 μM
[4] = system: HCC1806; assay: In vitro combination study, breast cancer cell line HCC1806; assay type: cell-based
[5] = system: SK-BR-3; assay: In vitro combination study, breast cancer cell line SK-BR-3; assay type: cell-based
[6] = system: MDA-MB-436; assay: In vitro combination study, breast cancer cell line MDA-MB-436; assay type: cell-based
[7] = system: SUM1315MO2; assay: In vitro combination study, breast cancer cell line SUM1315MO2; assay type: cell-based
[8] = system: HCC1954; assay: In vitro combination study, breast cancer cell line HCC1954; assay type: cell-based
[9] = system: CAMA-1; assay: In vitro combination study, breast cancer cell line CAMA-1; assay type: cell-based; conditions: 10 μM
[10] = system: TOV21G; assay: In vitro combination study, ovarian cancer cell line TOV21G; assay type: cell-based; conditions: Homo sapiens, read-out: Tazemetostat % inhibition at 20 μM, 20 μM
[11] = system: TYK-NU; assay: In vitro combination study, ovarian cancer cell line TYK-NU; assay type: cell-based; conditions: read-out: Tazemetostat % inhibition at 20 μM
[12] = system: CAOV-3; assay: In vitro combination study, ovarian cancer cell line CAOV-3; assay type: cell-based; conditions: Homo sapiens, read-out: Tazemetostat % inhibition at 20 μM, 20 μM
[13] = system: OVCAR-3; assay: In vitro combination study, ovarian cancer cell line OVCAR-3; assay type: cell-based; conditions: Homo sapiens, read-out: Tazemetostat % inhibition at 20 μM
[14] = system: EFM-19
[15] = system: HCC1395
[16] = system: HCC38; conditions: HCC38; 10 μM
[17] = system: MDA-MB-157
[18] = system: SUM149PT
[19] = system: HCC202
[20] = system: HCC70
[21] = system: COV504; assay: cells; conditions: COV504, read-out: Tazemetostat % inhibition at 20 μM
[22] = system: COV434; assay: cells; conditions: COV434, read-out: Tazemetostat % inhibition at 20 μM
[23] = system: BT474; assay: In vitro combination study, breast cancer cell line BT474
[24] = system: BT549; assay: In vitro combination study, breast cancer cell line BT549; conditions: 10 μM
[25] = system: BT-20; assay: In vitro combination study, breast cancer cell line BT-20
[26] = system: ES-2; assay: In vitro combination study, ovarian cancer cell line ES-2
[27] = system: DU4475; assay: In vitro combination study, breast cancer cell line DU4475; conditions: 10 μM
[28] = system: ZR-75-1; assay: In vitro combination study, breast cancer cell line ZR-75-1
[29] = system: OVISE; assay: In vitro combination study, ovarian cancer cell line OVISE; conditions: read-out: Tazemetostat % inhibition at 20 μM
[30] = system: OV-90; assay: In vitro combination study, ovarian cancer cell line OV-90; conditions: Homo sapiens, OV-90, read-out: Tazemetostat % inhibition at 20 μM
[31] = system: RMUGS*; assay: In vitro combination study, ovarian cancer cell line RMUGS; conditions: 20 μM
[32] = system: OAW42; assay: In vitro combination study, ovarian cancer cell line OAW42; conditions: Homo sapiens, OAW-42, read-out: Tazemetostat % inhibition at 20 μM
[33] = system: SKOV3; assay: In vitro combination study, ovarian cancer cell line SKOV3; conditions: 20 μM
[34] = system: A2780; assay: In vitro combination study, ovarian cancer cell line A2780; conditions: Homo sapiens, A2780, read-out: Tazemetostat % inhibition at 20 μM
[35] = system: HCC1569; assay: In vitro combination study, breast cancer cell line HCC1569
[36] = system: SUM52PE; assay: In vitro combination study, breast cancer cell line SUM52PE
[37] = system: HCC1143; assay: In vitro combination study, breast cancer cell line HCC1143; conditions: 10 μM
[38] = system: HCC1187; assay: In vitro combination study, breast cancer cell line HCC1187
[39] = system: HCC1937; assay: In vitro combination study, breast cancer cell line HCC1937
[40] = system: HCC1419; assay: In vitro combination study, breast cancer cell line HCC1419; conditions: 10 μM
[41] = system: OVMANA; assay: In vitro combination study, ovarian cancer cell line OVMANA; conditions: read-out: Tazemetostat % inhibition at 20 μM
[42] = system: COV362; assay: In vitro combination study, ovarian cancer cell line COV362
[43] = system: OVSAHO; assay: In vitro combination study, ovarian cancer cell line OVSAHO
[44] = system: JH)S-4; assay: In vitro combination study, ovarian cancer cell line JH)S-4; conditions: 20 μM
[45] = system: COV644*; assay: In vitro combination study, ovarian cancer cell line COV644
[46] = system: SNU840; assay: In vitro combination study, ovarian cancer cell line SNU840; conditions: SNU-840, read-out: Tazemetostat % inhibition at 20 μM
[47] = system: SUM159PT; assay: In vitro combination study, breast cancer cell line SUM159PT; conditions: 10 μM
[48] = system: TOV112D; assay: In vitro combination study, ovarian cancer cell line TOV112D; conditions: 20 μM
[49] = system: MDA-MB-231; assay: In vitro combination study, breast cancer cell line MDA-MB-231
[50] = system: MDA-MB-468; assay: In vitro combination study, breast cancer cell line MDA-MB-468
[51] = system: KURAMOCHI; assay: In vitro combination study, ovarian cancer cell line KURAMOCHI; conditions: read-out: Tazemetostat % inhibition at 20 μM
[52] = system: MDA-MB-175VII; assay: In vitro combination study, breast cancer cell line MDA-MB-175VII
[53] = system: ZR-75-1
[54] = system: HCC1143
[55] = system: DU4475
[56] = system: OVMANA
[57] = system: OVISE
[58] = system: COV504
[59] = system: TOV112D
[60] = system: SNU840
[61] = ER/PR +/+, HER2 +, 7 day pre-treatment + 6 day co-treatment
[62] = ER/PR −/−, HER2 −, 7 day pre-treatment + 6 day co-treatment

Compound: CCN(c1cc(-c2ccc(CN3CCOCC3)cc2)cc(C(=O)NCc2c(C)cc(C)[nH]c2=O)c1C)C1CCOCC1 [Tazemetostat, tazemetostat]
Tazemetostat sensitivity at 10 μM (%) [1]: 50% | Tazemetostat sensitivity at 10 μM (%) [2]: 10% | Tazemetostat sensitivity at 10 μM (%) [3]: 40% | Tazemetostat sensitivity at 10 μM (%) [4]: 40% | Tazemetostat sensitivity at 10 μM (%) [5]: 70% | Tazemetostat sensitivity at 10 μM (%) [6]: 10% | Tazemetostat sensitivity at 10 μM (%) [7]: 35% | Tazemetostat sensitivity at 10 μM (%) [8]: 0% | Tazemetostat sensitivity at 10 μM (%) [9]: 30% | inhibition at 20 µM [10]: 40% | inhibition at 20 µM [11]: 0% | inhibition at 20 µM [12]: 0% | inhibition at 20 µM [13]: 0% | Tazemetostat sensitivity at 10 μM (%) [14]: 20% | Tazemetostat sensitivity at 10 μM (%) [15]: 25% | Tazemetostat sensitivity at 10 μM (%) [16]: 20% | Tazemetostat sensitivity at 10 μM (%) [17]: 0% | Tazemetostat sensitivity at 10 μM (%) [18]: 30% | Tazemetostat sensitivity at 10 μM (%) [19]: 0% | Tazemetostat sensitivity at 10 μM (%) [20]: 35% | inhibition at 20 µM [21]: 30% | inhibition at 20 µM [22]: 50% | Tazemetostat sensitivity at 10 μM (%) ([23]; 10 μM): 0% | Tazemetostat sensitivity at 10 μM (%) [24]: 40% | Tazemetostat sensitivity at 10 μM (%) ([25]; 10 μM): 0% | Tazemetostat % inhibition at 20 μM ([26]; 20 μM): 0% | Tazemetostat sensitivity at 10 μM (%) [27]: 35% | Tazemetostat sensitivity at 10 μM (%) [28]: 40% | inhibition at 20 µM [29]: 0% | inhibition at 20 µM [30]: 15% | Tazemetostat % inhibition at 20 μM [31]: −20% | inhibition at 20 µM [32]: 15% | Tazemetostat % inhibition at 20 μM [33]: 15% | inhibition at 20 µM [34]: 35% | Tazemetostat sensitivity at 10 μM (%) [35]: 20% | Tazemetostat sensitivity at 10 μM (%) ([36]; 10 μM): 50% | Tazemetostat sensitivity at 10 μM (%) [37]: 0% | Tazemetostat sensitivity at 10 μM (%) ([38]; 10 μM): 0% | Tazemetostat sensitivity at 10 μM (%) ([39]; 10 μM): 20% | Tazemetostat sensitivity at 10 μM (%) [40]: 0% | inhibition at 20 µM [41]: 20% | inhibition at 20 µM ([42]; COV362, read-out: Tazemetostat % inhibition at 20 μM): 0% | inhibition at 20 µM ([43]; Homo sapiens, read-out: Tazemetostat % inhibition at 20 μM): 0% | Tazemetostat % inhibition at 20 μM [44]: −20% | inhibition at 20 µM ([45]; read-out: Tazemetostat % inhibition at 20 μM): 10% | inhibition at 20 µM [46]: 25% | Tazemetostat sensitivity at 10 μM (%) [47]: 50% | Tazemetostat % inhibition at 20 μM [48]: 20% | Tazemetostat sensitivity at 10 μM (%) ([49]; 10 μM): 0% | Tazemetostat sensitivity at 10 μM (%) [50]: 30% | inhibition at 20 µM [51]: 20% | Tazemetostat sensitivity at 10 μM (%) ([52]; 10 μM): 10%

Synergy or antagonism of second agent with tazemetostat (IC50 shift of second agent) [23, 61]: A (Antagonism) | Synergy or antagonism of second agent with tazemetostat (IC50 shift of second agent) [25, 62]: C (Synergy > 2× IC50 shift) | Synergy or antagonism of second agent with tazemetostat (IC50 shift of second agent) ([26]; 4+3 model): A (Antagonism) | Synergy or antagonism of second agent with tazemetostat (IC50 shift of second agent) [36, 62]: A (Antagonism) | Synergy or antagonism of second agent with tazemetostat (IC50 shift of second agent) [38, 62]: A (Antagonism) | Synergy or antagonism of second agent with tazemetostat (IC50 shift of second agent) ([39]; ER/PR −/−, HER2 +, 7 day pre-treatment + 6 day co-treatment): A (Antagonism) | Synergy or antagonism of second agent with tazemetostat (IC50 shift of second agent) ([42]; COV362, 4+3 model): A (Antagonism) | Synergy or antagonism of second agent with tazemetostat (IC50 shift of second agent) ([43]; 4+3 model): A (Antagonism) | Synergy or antagonism of second agent with tazemetostat (IC50 shift of second agent) ([45]; COV644*, 7+3 model): A (Antagonism) | Synergy or antagonism of second agent with tazemetostat (IC50 shift of second agent) [49, 62]: A (Antagonism) | Synergy or antagonism of second agent with tazemetostat (IC50 shift of second agent) [52, 61]: A (Antagonism)
Compound: CN(Cc1cnc2nc(N)nc(N)c2n1)c1ccc(C(=O)N[C@@H](CCC(=O)O)C(=O)O)cc1 [Methotrexate]
Synergy or antagonism of second agent with tazemetostat (IC50 shift of second agent) [53]: A (key: B: Synergy > 4× IC50 shift; Synergy > 2× IC50 shift; No Effect; Antagonism; X: Not Tested) | Synergy or antagonism of second agent with tazemetostat (IC50 shift of second agent) [54]: A (key: B: Synergy > 4× IC50 shift; Synergy > 2× IC50 shift; No Effect; Antagonism; X: Not Tested) | Synergy or antagonism of second agent with tazemetostat (IC50 shift of second agent) [55]: A (key: B: Synergy > 4× IC50 shift; Synergy > 2× IC50 shift; No Effect; Antagonism; X: Not Tested) | Synergy or antagonism of second agent with tazemetostat (IC50 shift of second agent) [56]: A (key: B: Synergy > 4× IC50 shift; Synergy > 2× IC50 shift; No Effect; Antagonism; X: Not Tested) | Synergy or antagonism of second agent with tazemetostat (IC50 shift of second agent) [57]: A (key: B: Synergy > 4× IC50 shift; Synergy > 2× IC50 shift; No Effect; Antagonism; X: Not Tested) | Synergy or antagonism of second agent with tazemetostat (IC50 shift of second agent) [58]: A (key: B: Synergy > 4× IC50 shift; Synergy > 2× IC50 shift; No Effect; Antagonism; X: Not Tested) | Synergy or antagonism of second agent with tazemetostat (IC50 shift of second agent) [59]: A (key: B: Synergy > 4× IC50 shift; Synergy > 2× IC50 shift; No Effect; Antagonism; X: Not Tested) | Synergy or antagonism of second agent with tazemetostat (IC50 shift of second agent) [60]: A (key: B: Synergy > 4× IC50 shift; Synergy > 2× IC50 shift; No Effect; Antagonism; X: Not Tested)

Reference: US11951108B2, “Combination therapy for treating cancer” (Epizyme, Inc., priority 2016, dated 2024)
